Assay results: PubChem BioAssay (NCI)
“And” between values parts separate entries of the source, which are not always exact repeats. Identical values can stand only once.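 These data come from cells grown in 96-well plates and exposed to compound for 48 hours at five concentrations. At the GI50, growth is halved. The concentration for full growth arrest is given as TGI.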

Experiments:
Experiment in all cases: NCI-60 cell line screen, 48 h
[1] = system: 786-0 renal
[2] = system: A498 renal
[3] = system: A549 NSCLC
[4] = system: ACHN renal
[5] = system: CAKI-1 renal
[6] = system: CCRF-CEM leukemia
[7] = system: COLO 205 colon
[8] = system: DMS 114 small cell lung
[9] = system: DMS 273 small cell lung
[10] = system: EKVX NSCLC
[11] = system: HCC-2998 colon
[12] = system: HCT-116 colon
[13] = system: HCT-15 colon
[14] = system: HL-60(TB) leukemia
[15] = system: HOP-62 NSCLC
[16] = system: HOP-92 NSCLC
[17] = system: HT29 colon
[18] = system: IGROV1 ovarian
[19] = system: K-562 leukemia
[20] = system: KM12 colon
[21] = system: KM20L2 colon
[22] = system: LOX IMVI melanoma
[23] = system: LXFL 529 NSCLC
[24] = system: M14 melanoma
[25] = system: M19-MEL melanoma
[26] = system: MALME-3M melanoma
[27] = system: MOLT-4 leukemia
[28] = system: NCI-H226 lung
[29] = system: NCI-H23 lung
[30] = system: NCI-H460 lung
[31] = system: NCI-H522 lung
[32] = system: OVCAR-3 ovarian
[33] = system: OVCAR-4 ovarian
[34] = system: OVCAR-5 ovarian
[35] = system: OVCAR-8 ovarian
[36] = system: RPMI-8226 leukemia
[37] = system: RXF 393 renal
[38] = system: SF-268 CNS
[39] = system: SF-295 CNS
[40] = system: SF-539 CNS
[41] = system: SK-MEL-2 melanoma
[42] = system: SK-MEL-28 melanoma
[43] = system: SK-MEL-5 melanoma
[44] = system: SK-OV-3 ovarian
[45] = system: SN12C renal
[46] = system: SNB-19 CNS
[47] = system: SNB-75 CNS
[48] = system: SNB-78 CNS
[49] = system: SR leukemia
[50] = system: SW-620 colon
[51] = system: TK-10 renal
[52] = system: U251 CNS
[53] = system: UACC-257 melanoma
[54] = system: UACC-62 melanoma
[55] = system: UO-31 renal
[56] = system: DLD-1 colon
[57] = system: HOP-18 NSCLC
[58] = system: XF 498 CNS

Structure (SMILES): Cc1ccc(S(=O)(=O)ON=C2CC(c3ccccc3)N(C)C(c3ccccc3)C2)cc1 (stereo not drawn)
- TGI [1]: 44.9 µM and 58.5 µM
- TGI [2]: 70.8 µM
- TGI [3]: 63.1 µM and 55.1 µM
- TGI [4]: 50.7 µM
- TGI [5]: 71.5 µM and 44.9 µM
- TGI [6]: > 100 µM
- TGI [7]: 29 µM and 28.3 µM
- TGI [8]: 29.9 µM
- TGI [9]: 41.4 µM and 56.8 µM
- TGI [10]: > 100 µM
- TGI [11]: 32.3 µM
- TGI [12]: 29.6 µM and 27.5 µM
- TGI [13]: 34.7 µM and 44.9 µM
- GI50 [14]: 7.25 µM and 19.9 µM
- TGI [14]: > 100 µM
- TGI [15]: 68.4 µM and 98.2 µM
- TGI [16]: 43.5 µM and 46.7 µM
- TGI [17]: 54.7 µM and 57.3 µM
- TGI [18]: 62.1 µM and 56.7 µM
- GI50 [19]: 60.1 µM and 29.3 µM
- TGI [19]: > 100 µM
- TGI [20]: 34.1 µM
- TGI [21]: 53.6 µM and 45.9 µM
- TGI [22]: 27.5 µM and 26.9 µM
- TGI [23]: 33.3 µM and 40.3 µM
- TGI [24]: 34.9 µM and 43.8 µM
- TGI [25]: 53.5 µM and 56.2 µM
- TGI [26]: 78.1 µM and 66.4 µM
- TGI [27]: 53.2 µM and > 100 µM
- TGI [28]: 70.1 µM and 64 µM
- TGI [29]: 62.9 µM and 47.8 µM
- TGI [30]: 44.1 µM and 52.7 µM
- TGI [31]: 27.4 µM and 25.2 µM
- TGI [32]: 47.8 µM and 49.4 µM
- TGI [33]: 38.4 µM and 40.3 µM
- TGI [34]: 92.6 µM
- TGI [35]: 35.6 µM and 36.5 µM
- TGI [36]: 48.2 µM
- TGI [37]: 48 µM and 71.6 µM
- TGI [38]: 51.8 µM and 51.1 µM
- TGI [39]: 52.4 µM and 65.5 µM
- TGI [40]: 36 µM
- TGI [41]: 30 µM
- TGI [42]: 54.3 µM and 49 µM
- TGI [43]: 32.5 µM and 31.8 µM
- TGI [44]: 44.9 µM and 47.7 µM
- TGI [45]: 55 µM
- TGI [46]: 92.8 µM and > 100 µM
- TGI [47]: 79.3 µM and 66.9 µM
- TGI [48]: 64.7 µM and 52.8 µM
- TGI [49]: 62.5 µM and 57.3 µM
- TGI [50]: 38.8 µM and 31.2 µM
- TGI [51]: 49.1 µM and 48.5 µM
- TGI [52]: 55.3 µM and 53.6 µM
- TGI [53]: 52.2 µM and 58 µM
- TGI [54]: 31.1 µM
- TGI [55]: 35.3 µM and 49.1 µM

Structure (SMILES): Cc1cc(C(=O)NCCN(C)C)c2nc3ccccc3nc2c1
- TGI [1]: > 61.9 µM
- TGI [2]: 16.4 µM
- TGI [3]: > 58.7 µM
- TGI [4]: > 51 µM
- TGI [5]: > 46.5 µM
- TGI [7]: > 37.1 µM
- TGI [56]: 48.9 µM
- TGI [8]: 14.4 µM
- TGI [9]: > 100 µM
- TGI [10]: 43.5 µM
- TGI [11]: 35.2 µM
- TGI [12]: 16.3 µM
- TGI [13]: 27.6 µM
- TGI [14]: > 100 µM
- TGI [57]: > 88.8 µM
- TGI [15]: 10.4 µM
- TGI [17]: 19.1 µM
- TGI [18]: > 29.5 µM
- TGI [19]: 9.8 µM
- TGI [20]: 23.8 µM
- TGI [21]: 15.1 µM
- TGI [22]: 9.17 µM
- TGI [23]: > 46.3 µM
- TGI [24]: > 33.5 µM
- TGI [25]: 13.6 µM
- TGI [26]: 13.8 µM
- TGI [27]: 5.97 µM
- TGI [28]: 14.3 µM
- TGI [29]: 23.6 µM
- TGI [31]: > 100 µM
- TGI [32]: 40.4 µM
- TGI [33]: 19.5 µM
- TGI [34]: 15.2 µM
- TGI [35]: > 76.6 µM
- TGI [36]: 41.2 µM
- TGI [37]: 19.7 µM
- TGI [39]: > 27.8 µM
- TGI [40]: 19.4 µM
- TGI [41]: 17.2 µM
- TGI [42]: 16.1 µM
- TGI [43]: > 41.6 µM
- TGI [44]: > 46 µM
- TGI [45]: 43.7 µM
- TGI [46]: 73.5 µM
- TGI [47]: 48.3 µM
- TGI [48]: 47.2 µM
- TGI [49]: > 100 µM
- TGI [50]: > 37.4 µM
- TGI [51]: > 59.1 µM
- TGI [52]: 33.3 µM
- TGI [53]: 17.2 µM
- TGI [54]: 18.7 µM
- TGI [55]: > 59.6 µM

Structure (SMILES): CN(C)/C(=N/C(=O)Nc1ccccc1)SCc1ccccc1
- TGI [1]: > 100 µM
- TGI [2]: > 100 µM
- TGI [3]: > 100 µM
- TGI [4]: > 100 µM
- TGI [5]: > 100 µM
- TGI [6]: > 100 µM
- TGI [7]: > 100 µM
- TGI [56]: > 100 µM
- TGI [8]: > 100 µM
- TGI [9]: > 100 µM
- TGI [10]: > 100 µM
- TGI [11]: > 100 µM
- TGI [13]: > 100 µM
- TGI [14]: > 100 µM
- TGI [57]: > 100 µM
- TGI [15]: > 100 µM
- TGI [17]: > 100 µM
- TGI [18]: > 100 µM
- TGI [19]: > 100 µM
- TGI [20]: > 100 µM
- TGI [22]: > 100 µM
- TGI [23]: > 100 µM
- TGI [24]: > 100 µM
- TGI [25]: > 100 µM
- TGI [26]: > 100 µM
- TGI [27]: > 100 µM
- TGI [28]: > 100 µM
- TGI [29]: > 100 µM
- TGI [31]: > 100 µM
- TGI [32]: > 100 µM
- TGI [33]: > 100 µM
- TGI [34]: > 100 µM
- TGI [35]: > 100 µM
- TGI [36]: > 100 µM
- TGI [37]: > 100 µM
- TGI [38]: > 100 µM
- TGI [39]: > 100 µM
- TGI [40]: > 100 µM
- TGI [41]: > 100 µM
- TGI [42]: > 100 µM
- TGI [43]: > 100 µM
- TGI [44]: > 100 µM
- TGI [45]: > 100 µM
- TGI [46]: > 100 µM
- TGI [47]: > 100 µM
- TGI [48]: > 100 µM
- TGI [50]: > 100 µM
- TGI [51]: > 100 µM
- TGI [52]: > 100 µM
- TGI [53]: > 100 µM
- TGI [54]: > 100 µM
- TGI [55]: > 100 µM
- TGI [58]: > 100 µM
